These are literature values, as cited in patent EP2610673B1, “Method for manufacturing lithographic printing plates” (FUJIFILM Corporation, priority 2011, dated 2013).

For the molecule `CCC(C)CO` (stereo not shown) [2-methyl-1-butanol], the “solubility in 20°C water” value was 3.0 g/100 mL.

As to `CC(C)CCO` [3-methyl-1-butanol], the “solubility in 20°C water” value was 2.7 g/100 mL.

For the molecule `CC(C)C(C)O` (stereo not shown) [3-methyl-2-butanol], the “solubility in 20°C water” value is on record as 5.6 g/100 mL.

As for `CC(C)CC(C)O` (stereo not shown) [4-methyl-2-pentanol], the “solubility in 20°C water” value is listed as 2.0 g/100 mL.

As for `CCCCCO` [Example 1-pentanol, 1-pentanol], the “solubility in 20°C water” value was 2.7 g/100 mL.

On to `CCCC(C)O` (stereo not shown) [Example 2-pentanol, 2-pentanol], for which the “solubility in 20°C water” value is 4.5 g/100 mL.

With `CCCC(C)=O` [Example 2-pentanone, 2-pentanone], the “solubility in 20°C water” value is given as 4.0 g/100 mL.

On to `CCC(O)CC` [Example 3-pentanol, 3-pentanol], for which the “solubility in 20°C water” value is reported as 5.2 g/100 mL.

In the case of `OCc1ccccc1` [benzyl alcohol], the “solubility in 20°C water” value is 4.0 g/100 mL.

Turning to `CCC(=O)CC` [diethyl ketone], the “solubility in 20°C water” value is listed as 1.7 g/100 mL.

`CCCCOCCOCCOC(C)=O` [diethylene glycol monobutyl ether acetate]: the “solubility in 20°C water” value was 6.5 g/100 mL.

As to `OCCOc1ccccc1` [ethylene glycol monophenyl ether], the “solubility in 20°C water” value is recorded as 2.7 g/100 mL.

`CC(=O)OC(C)C` [isopropyl acetate]: the “solubility in 20°C water” value is 4.3 g/100 mL.

On to `CC(C)(C)CO` [neopentyl alcohol], for which the “solubility in 20°C water” value is 3.5 g/100 mL.

For the molecule `CCCOC(C)=O` [propyl acetate], the “solubility in 20°C water” value is recorded as 1.6 g/100 mL.

Consider `CCCCOCC(C)O` (stereo not shown) [propylene glycol mono-n-butyl ether], for which the “solubility in 20°C water” value is on record as 4.4 g/100 mL.
